Solubility data for one molecule are collected here from patent US20170000715A1, “PEGYLATED 7-DEHYDROCHOLESTEROL DERIVATIVES” (HUMEDIX CO., LTD., priority 2014, published 2017).

This series in a line: Solubility test (saturated aqueous solution in distilled water, gravimetric). It counts as physicochemical. Conditions: room temperature, calculated according to Equation 1. Here is the method:
Each of compounds of Examples 1 and 5 and 7-dehydrocholesterol as a comparative material was dissolved in an amount of 100 mg in 100 ml of distilled water, followed by stirring at room temperature for 1 hour. The procedure was repeated until each compound was saturated and those being not dissolved were filtered, to prepare each saturated aqueous solution.
Then, the saturated aqueous solution was put into a weighed empty container (A), followed by weighing (B). Then, the saturated aqueous solution in the container was concentrated in reduced pressure and dried under vacuum, followed by weighing (C). The solubility of each solution was calculated according to the following Equation 1, and the results thereof are shown in Table 2.

Turning to `CC(C)CCC[C@@H](C)[C@H]1CC[C@H]2C3=CC=C4C[C@@H](O)CC[C@]4(C)[C@H]3CC[C@]12C` [7-Dehydrocholesterol, 7-dehydrocholesterol], the Solubility result is “Insoluble”.
